“And” between values parts separate entries of the source, which are not always exact repeats. Equal values may be shown once.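 Compound exposure: 48 hours, 5 concentrations, 96-well plates. Here, GI50 denotes the concentration required for 50% inhibition of growth.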 The source made the active and inactive calls. Rule as the data show it: active = GI50 up to about 1.1 µM and inactive = higher.
Columns and labels:
Assay in all cases: inhibition of tumour cell growth, NCI panel, 48 h
[1] = test system: A549
[2] = test system: EKVX
[3] = test system: HCC 2998
[4] = test system: HCT-116
[5] = test system: MOLT-4
[6] = test system: Malme-3M
[7] = test system: NCI-H226
[8] = test system: NCI-H460
[9] = test system: OVCAR-8
[10] = test system: RPMI-8226
[11] = test system: SF-268
[12] = test system: SK-OV-3
[13] = test system: SW-620
[14] = test system: TK-10
[15] = test system: U-251
[16] = test system: UACC-257
[17] = test system: UACC-62
[18] = test system: HOP-92

Measured: GI50

CC(=O)OC1COC(N2CCc3ccccc32)C(OC(C)=O)C1OC(C)=O (stereo not given)
inactive: [1] > 100 µM | [2] > 100 µM and > 57.1 µM | [3] > 100 µM | [4] > 100 µM | [5] > 100 µM | [6] > 100 µM | [7] > 100 µM | [8] > 100 µM | [9] > 100 µM | [10] > 100 µM | [11] > 100 µM | [12] > 100 µM | [13] > 100 µM | [14] > 100 µM | [15] > 100 µM | [16] > 100 µM | [17] > 94.6 µM

O=C1C(Cl)C(c2ccccc2Cl)N1n1cnc2ccccc2c1=O (stereo not given)
inactive: [1] > 100 µM | [2] 18.5 µM | [3] 39.6 µM | [4] 36.1 µM | [5] 68.5 µM | [6] > 100 µM | [7] 8.32 µM | [8] > 100 µM | [9] > 100 µM | [10] 35 µM | [11] 54.5 µM | [12] 24.2 µM | [13] 31.9 µM | [14] 46.7 µM | [15] 48.4 µM | [16] 37.2 µM | [17] 21.6 µM

CN1C(=S)CSc2ccccc21
inactive: [1] > 100 µM | [2] 44.1 µM | [4] > 100 µM | [18] 90.2 µM | [5] > 100 µM | [6] > 100 µM | [7] 89.1 µM | [8] > 100 µM | [9] > 100 µM | [10] 89.7 µM | [11] > 100 µM | [12] > 100 µM | [13] > 100 µM | [14] > 100 µM | [15] > 100 µM | [16] > 100 µM

COc1ccc(N2C(=O)[C@@H]3[C@H](C2=O)c2[nH]c4ccccc4c2C2CCC(C(C)(C)C)C[C@@H]23)cc1 (stereo not given in full)
inactive: [1] 24.2 µM | [2] 28.4 µM | [3] 29.5 µM | [4] 30.5 µM | [5] 14.4 µM | [6] 30.4 µM | [7] 22.3 µM | [8] 25.2 µM | [9] 18 µM | [10] 22.4 µM | [11] 29.9 µM | [12] 18.6 µM | [13] 35.2 µM | [14] 28 µM | [15] 20.9 µM | [16] 40.6 µM | [17] 19.1 µM

CC1=C(C(=O)O)N2C(=O)[C@@H](NC(=O)C(c3ccc(O)cc3)N3CSC(=S)N(C(C)C)C3)C2SC1 (stereo not given in full)
inactive: [1] > 100 µM | [2] > 100 µM | [4] > 100 µM | [18] > 100 µM | [5] > 100 µM | [6] > 100 µM | [8] > 100 µM | [9] > 100 µM | [10] > 100 µM | [11] > 100 µM | [12] > 100 µM | [14] > 100 µM | [15] > 100 µM | [16] > 100 µM | [17] > 100 µM

Cc1ccc(Oc2ccc(C(=O)c3cccc(C(=O)c4ccc(Oc5ccc(C)cc5)cc4)n3)cc2)cc1
inactive: [1] > 100 µM | [2] > 100 µM | [3] > 100 µM | [4] > 100 µM | [18] > 100 µM | [5] > 100 µM | [6] > 100 µM | [7] > 100 µM | [8] > 100 µM | [9] > 100 µM | [11] > 100 µM | [12] > 100 µM | [13] > 100 µM | [14] > 100 µM | [15] > 100 µM | [16] > 100 µM | [17] > 100 µM

C[n+]1c2ccccc2c(NCC(=O)O)c2ccccc21
inactive: [1] > 100 µM | [2] 87.5 µM | [3] > 100 µM | [4] 86.7 µM | [5] > 100 µM | [6] > 100 µM | [7] > 100 µM | [8] > 100 µM | [9] > 100 µM | [10] > 100 µM | [11] > 100 µM | [12] > 100 µM | [13] > 100 µM | [14] > 100 µM | [15] > 100 µM | [16] > 100 µM | [17] > 100 µM

O=C1C2C3CC(C4C5C=CC(C5)C34)C2C2C3CC(C12)C1C2C=CC(C2)C31 (stereo not given)
inactive: [1] > 100 µM | [2] > 100 µM | [3] > 100 µM | [4] > 100 µM | [18] > 100 µM | [5] > 100 µM | [6] > 100 µM | [7] > 100 µM | [8] 26.8 µM | [9] > 100 µM | [11] 90.8 µM | [12] > 100 µM | [13] 20.8 µM | [14] > 100 µM | [15] > 100 µM | [16] > 100 µM | [17] > 100 µM

O=C(CC1C(=O)Nc2ccccc2[S+]1[O-])Nc1ccccc1 (stereo not given)
inactive: [1] > 100 µM | [2] > 100 µM | [3] > 100 µM | [4] > 100 µM | [18] 53.8 µM | [5] > 100 µM | [6] > 100 µM | [7] > 100 µM | [8] > 100 µM | [9] 36.4 µM | [11] > 100 µM | [12] 26.9 µM | [13] > 100 µM | [14] > 100 µM | [15] > 100 µM | [16] > 100 µM | [17] > 100 µM

O=C1N=CN=C2C=CC(Cl)=C(I)C12 (stereo not given)
inactive: [1] > 100 µM | [2] 9.4 µM | [3] > 100 µM | [4] 42.5 µM | [5] 67.1 µM | [6] > 100 µM | [8] 75.5 µM | [9] > 100 µM | [10] 56.2 µM | [11] 20.2 µM | [12] 49.3 µM | [13] > 100 µM | [14] 80.9 µM | [15] 74.3 µM | [16] > 100 µM | [17] 45.3 µM

COC(=O)[C@]1(C)CCC[C@@]2(C)C1CCC1=CC3(C(C)C)CCC12OO3 (stereo not given in full)
inactive: [1] 44 µM | [2] 90.6 µM | [3] 88.5 µM | [4] 42 µM | [5] 20 µM | [6] 36.2 µM | [7] 43.7 µM | [8] 58.6 µM | [9] 63.8 µM | [10] 43.1 µM | [11] > 100 µM | [12] > 100 µM | [13] > 100 µM | [14] > 100 µM | [15] > 100 µM | [16] 31.5 µM | [17] 57 µM

NC(=O)c1cc([N+](=O)[O-])cc([N+](=O)[O-])c1 [NITROMIDE]
inactive: [1] > 100 µM | [2] > 100 µM | [4] > 100 µM | [18] > 100 µM | [5] > 100 µM | [6] 69.3 µM | [7] > 100 µM | [8] > 100 µM | [9] > 100 µM | [10] > 100 µM | [11] > 100 µM | [12] > 100 µM | [13] > 100 µM | [14] > 100 µM | [15] > 100 µM | [16] > 100 µM | [17] 96.8 µM

Reference: ChEMBL document CHEMBL1201862, “PubChem BioAssay data set” (2004)
